Measurements from US20120107284A1, “Stem cells for transplantation and methods for production thereof” (priority 2006, published 2012).

How the values were obtained:
[1] = tested on: firefly luciferase activity, controlled by cTA2^D-5; test: Dual Tet-system reporter assay, firefly luciferase, HeLa HLRF33/1141 cotransfected with cTA2D-5 and rtTA2s-M24C5G; format: cell-based; conditions: HeLa cells (HLRF33/1141), 24 h incubation, 1 μg/ml
Method: (§1) B: Regulatory properties. HeLa cells (HLRF33/1141) were cotransfected with two plasmids encoding the transregulators cTA2^D-5 and rtTA2^s-M24C5G. Reporter gene expression was scored after 24 h incubation with 1 μg/ml of either cmt3 or dox or both. Luciferase activities were determined from cell extracts and represent the means of triplicate samples with standard deviations given in arbitrary light units (ALU; defined as relative light units per mg of total cell protein corrected for transfection efficiency). Expression of Renilla luciferase controlled by rtTA2^s-M24C5G is increased about 1000-fold and only in the presence of dox (columns 3 and 4). Addition of cmt3 leads to a ˜100-fold decrease in firefly luciferase activity, controlled by cTA2^D-5 (columns 2 and 4), while expression of firefly luciferase is only slightly, less than 2-fold, reduced in the presence of dox. […] The regulatory system is thus functional and can be used for target gene expression in NCSCs.
(§2) Recently two transcription factors have been constructed—cTA2^D-5 and rtTA2^s-M24C5G—with exclusive specificities for DNA binding (wt TRE/4C5G TRE), effector recognition (cmt3/dox) and homodimer formation (class D/class B) (Dr. Christian Berens, Erlangen University). All these components were tested for the first time in eukaryotic cells to determine their regulatory properties (C. Berens, unpublished). […]

[2] = tested on: Renilla luciferase controlled by rtTA2^s-M24C5G; test: Dual Tet-system reporter assay, Renilla luciferase, HeLa HLRF33/1141 cotransfected with cTA2D-5 and rtTA2s-M24C5G; format: cell-based; conditions: HeLa cells (HLRF33/1141), 24 h incubation, 1 μg/ml
Method: as §1, §2

[3] = tested on: dorsal root ganglion neurons; test: Functionality of the Tet-system in vivo: DOX to pregnant Sox10-rtTA mice mated with TRE-Aml1/Runx1 males; conditions: [Sox10-rtTA+TRE-Aml1/Runx1] pups; DOX in drinking water during pregnancy days 7-8 and 11.5-14
Excerpt: FIG. 8. Abnormalities in offspring of pregnant Sox10-rtTA mice which had been mated with TRE-Aml1/Runx1 males and treated with DOX during pregnancy days 7-8 and 11.5-14. Pups with the genotype [Sox10-rtTA+TRE-Aml1/Runx1] are smaller than normal and display pigment defects (upper left), megacolon (lower left), and a reduced size of dorsal root ganglia (upper and lower right).
FIG. 9. The number of dorsal root ganglion neurons is reduced compared to control (1) by about 50% in [Sox10-rtTA+TRE-Aml1/Runx1] pups from Sox10-rtTA mice, which hade been mated with TRE-Aml1/Runx1 males, and treated with DOX during pregnancy days 7-8 and 11.5-14 (2).
The functionality of the Tet-system in vivo was first confirmed. Sox10-rtTA female mice were bred with TRE-Aml1A/Runx1 males and DOX was given in the drinking water to the pregnant females pregnancy days 7 to 8 and 11.5 to 14, which correspond to the period NCSC migration. […] The number of DRG neurons was reduced by about 50% (FIG. 9).

SMILES	Decrease in firefly luciferase activity controlled by cTA2^D-5 [1]	Increase in expression of Renilla luciferase controlled by rtTA2^s-M24C5G [2]	Reduction of the number of dorsal root ganglion neurons compared to control [3]
C[C@H]1c2cccc(O)c2C(=O)C2=C(O)[C@]3(O)C(=O)C(C(N)=O)=C(O)[C@@H](N(C)C)[C@@H]3[C@@H](O)[C@@H]21 [DOX, doxycycline]	less than 2 fold	about 1000 fold	about 50%
NC(=O)C1=C(O)C[C@@H]2C[C@@H]3Cc4cccc(O)c4C(=O)C3=C(O)[C@]2(O)C1=O [cmt3]	~100 fold		
